Assay results taken from US10202413B2, “Neuroactive enantiomeric 15-, 16- and 17-substituted steroids as modulators for GABA type-A receptors” (priority 2013, dated 2019).
Where two headings read alike, the source gives them in different places. Marks after values point to notes of the source that are not given here.

Experiments:
[1] = system: mice; assay: Mouse duration of anesthesia (LRR) after tail vein injection; assay type: in vivo
Protocol: The compounds were dissolved in 22.5% aqueous 2-(hydroxypropyl)-β-cyclodextrin. For compound 28, serial dilutions of a 8 mg/kg stock solution with 0.9% saline were made to obtain the lower doses tested.
At a dose of 8 mg/kg, compound MQ-35 caused LRR of about 3 minutes and at a dose of 16 mg/kg duration of LRR was increased to about 7 minutes.
At 4 mg/kg, LRR induced by KK-122 lasted about 5 minutes and at a dose of 8 mg/kg LRR lasted for about 9 minutes. For all three compounds, the onset of anesthesia was immediate (i.e., less than 30 seconds) and recovery was characterized by a rapid progression over 1-2 minutes from an initial return of leg movement followed by righting and subsequent walking around the cage.

[2] = system: Tadpole; assay: Tadpole loss of righting (LRR) and loss of swimming (LSR) reflexes; assay type: in vivo; settings: for EC50: ± SEM; for tadpoles that lost LRR / tadpoles that lost LSR: concentration of 3 μM, number of 10 tadpoles
Description: Table 3 discloses the anesthetic effects of the compounds of the present disclosure. In particular, the anesthetic effect of the compounds of the present disclosure on Loss of Righting Reflex (LRR) and Loss of Swimming Reflex (LSR).
Methods used are known in the art (see, e.g., Jiang, et al., Neurosteroid analogues. 9. Conformationally constrained pregnanes: structure-activity studies of 13,24-cyclo-18,21-dinorcholane analogues of the GABA modulatory and anesthetic steroids (3α,5α)- and (3α,5β)-3-hydroxypregnan-20-one. J. Med. Chem. 2003, 46, 5334-5348). Error limits are calculated as standard error of the mean (N=10 or more animals at each of five or more different concentrations).

[3] = molecular target: T1, rat α1β2γ2L type GABAA receptors expressed in Xenopus laevis oocytes (Rattus norvegicus, UniProt P18508+P62813+P63138, INS375LLRMFSFK); assay: Oocyte electrophysiology: potentiation of chloride currents mediated by 2 μM GABA, and direct gating; assay type: cell-based; settings: ± SEM (N≥4); for ratio of currents measured in the presence/absence of added compound, 0.1 μM: 0.1 μM compound; for ratio of currents measured in the presence/absence of added compound, 0.1 μM / ratio of currents measured in the presence/absence of added compound, 1.0 μM / ratio of currents measured in the presence/absence of added compound, 10 μM: 2 μM GABA; for ratio of currents measured in the presence/absence of added compound, 1.0 μM: 1.0 μM compound; for ratio of currents measured in the presence/absence of added compound, 10 μM: 10 μM compound; for (gating) 10 μM: ratio of compound only current/GABA current: direct current gated by 10 μM compound in the absence of GABA
T1 construct: expressed in transfected cells; host or cells: Xenopus laevis oocytes
Protocol: The compounds of the present disclosure were evaluated for the ability to potentiate chloride currents mediated by 2 μM GABA at rat α1β2γ2L type GABAA receptors expressed in Xenopus laevis oocytes and the results are shown in Table 2.
The GABA concentration used for the control response was 2 μM. Each compound was evaluated on at least four different oocytes at the concentrations indicated, and the results reported are the ratio of currents measured in the presence/absence of added compound. Gating represents direct current gated by 10 μM compound in the absence of GABA, and this current is reported as the ratio of compound only current/[…] current. Error limits are calculated as standard error of the mean (N≥4). Receptor expression and whole-cell and single-channel recordings were carried out as described previously (see Jiang, et al., Neurosteroid analogues. 9. Conformationally constrained pregnanes: structure-activity studies of 13,24-cyclo-18,21-dinorcholane analogues of the GABA modulatory and anesthetic steroids (3α,5α)- and (3α,5β)-3-hydroxypregnan-20-one. J. Med. Chem. 2003, 46, 5334-5348).

[4] = molecular target: picrotoxin binding site on GABAA receptors; assay: [35S]-TBPS displacement (inhibition of [35S]-TBPS binding); settings: non-competitive displacement of [35S]-TBPS; ± standard error of the mean
Protocol: The IC50 values for the compounds of the examples as non-competitive displacers of [^35S]-TBPS from the picrotoxin binding site on GABAA receptors are reported in Table 1.
Results presented are from duplicate experiments performed in triplicate. Error limits are calculated as standard error of the mean. Methods used are known in the art (see, e.g., Jiang, et al., Neurosteroid analogues. 9. Conformationally constrained pregnanes: structure-activity studies of 13,24-cyclo-18,21-dinorcholane analogues of the GABA modulatory and anesthetic steroids (3α,5α)- and (3α,5β)-3-hydroxypregnan-20-one. J. Med. Chem. 2003, 46, 5334-5348).

[5] = loss of righting reflex, read-out: Tadpole LRR EC50
[6] = loss of swimming reflex, read-out: Tadpole LSR EC50

T1 sequence (P62813 28-455, stated change not applied): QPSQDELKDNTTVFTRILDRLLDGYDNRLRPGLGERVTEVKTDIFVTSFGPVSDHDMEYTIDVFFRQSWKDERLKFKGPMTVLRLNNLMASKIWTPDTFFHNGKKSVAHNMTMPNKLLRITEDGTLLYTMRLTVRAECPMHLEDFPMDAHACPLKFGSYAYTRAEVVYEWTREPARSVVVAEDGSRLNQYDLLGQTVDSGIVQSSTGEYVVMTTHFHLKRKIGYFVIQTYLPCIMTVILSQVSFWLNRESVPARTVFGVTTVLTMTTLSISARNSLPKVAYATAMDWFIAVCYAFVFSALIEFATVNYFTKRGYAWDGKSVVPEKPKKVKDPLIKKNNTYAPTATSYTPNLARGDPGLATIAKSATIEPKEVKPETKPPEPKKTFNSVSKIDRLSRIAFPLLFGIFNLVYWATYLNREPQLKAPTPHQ
T1 sequence (P63138 26-474, stated change not applied): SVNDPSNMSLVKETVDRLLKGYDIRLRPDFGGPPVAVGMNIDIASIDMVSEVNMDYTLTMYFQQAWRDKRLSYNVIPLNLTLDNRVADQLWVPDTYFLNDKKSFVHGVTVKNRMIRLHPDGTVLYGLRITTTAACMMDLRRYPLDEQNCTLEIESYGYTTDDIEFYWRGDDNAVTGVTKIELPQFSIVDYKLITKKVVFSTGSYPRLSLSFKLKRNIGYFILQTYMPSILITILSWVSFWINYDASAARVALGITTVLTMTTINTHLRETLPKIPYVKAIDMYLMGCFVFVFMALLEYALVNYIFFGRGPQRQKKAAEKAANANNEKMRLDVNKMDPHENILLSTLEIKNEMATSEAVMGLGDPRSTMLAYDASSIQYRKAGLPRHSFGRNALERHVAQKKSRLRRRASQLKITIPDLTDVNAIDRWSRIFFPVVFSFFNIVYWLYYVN
T1 sequence (P18508 with tags, fused parts or gaps INS375LLRMFSFK): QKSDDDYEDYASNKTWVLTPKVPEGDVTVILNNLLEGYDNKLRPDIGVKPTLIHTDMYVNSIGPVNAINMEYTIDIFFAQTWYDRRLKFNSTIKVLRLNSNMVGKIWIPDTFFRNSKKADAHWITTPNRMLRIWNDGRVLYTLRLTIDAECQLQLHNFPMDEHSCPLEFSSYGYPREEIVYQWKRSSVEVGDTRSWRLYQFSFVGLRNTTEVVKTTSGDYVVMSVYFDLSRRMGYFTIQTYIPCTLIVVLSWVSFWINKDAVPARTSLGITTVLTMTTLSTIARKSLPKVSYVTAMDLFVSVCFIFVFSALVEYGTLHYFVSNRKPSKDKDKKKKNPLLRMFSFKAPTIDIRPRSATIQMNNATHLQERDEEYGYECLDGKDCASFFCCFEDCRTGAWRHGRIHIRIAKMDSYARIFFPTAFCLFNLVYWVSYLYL

Row | Compound | duration of anesthesia (LRR) ([1]; 1 mg/kg) | duration of anesthesia (LRR) ([1]; 4 mg/kg) | duration of anesthesia (LRR) ([1]; 8 mg/kg) | duration of anesthesia (LRR) ([1]; threshold dose of 2 mg/kg) | EC50 [2, 5] | EC50 [2, 6] | ratio of currents measured in the presence/absence of added compound, 0.1 μM [3] | ratio of currents measured in the presence/absence of added compound, 1.0 μM [3] | ratio of currents measured in the presence/absence of added compound, 10 μM [3] | (gating) 10 μM: ratio of compound only current/GABA current [3] | IC50 [4] | melting point | tadpoles that lost LRR [2] | tadpoles that lost LSR [2] | duration of anesthesia (LRR) ([1]; 16 mg/kg)
1 | CO[C@H]1[C@H]2CC[C@@H]3[C@H]4CC(=O)C[C@]4(C)CC[C@H]3[C@]2(C)CC[C@@H]1O [KK-122, (3β,4α,5β,8α,9β,10α,3α,14β)-3-Hydroxy-4-methoxyandrostan-16-one] | no LRR was observed | about 5 minutes | about 9 minutes | about 1 minute | 0.34 ± 0.4 µM | 1.73 ± 0.03 µM | 1.41 ± 0.07 | 6.48 ± 0.40 | 16.00 ± 2.21 | 0.08 ± 0.03 | 0.083 ± 0.011 µM | 198 to 200 °C | – | – | –
2 | C[C@@]12CC[C@H](O)C[C@H]1CC[C@H]1[C@H]2CC[C@@]2(C)C=C(C#N)C[C@H]12 [KK-141, (3β,5β,8α,9β,10α,13α,14β)-3-Hydroxyandrost-16-ene-16-carbonitrile] | – | – | – | – | – | – | 1.08 ± 0.11 | 1.35 ± 0.08 | 1.58 ± 0.13 | 0.08 ± 0.06 | 0.154 ± 0.019 µM | 247 to 249 °C | 5/10^b | 0/10^c | –
3 | C[C@@]12CC[C@@H]3[C@H](CC[C@@H]4C[C@@H](O)CC[C@]43C)[C@H]1C[C@@H](C#N)C2 [KK-142, (3β,5β,8α,9β,10α,13α,14β,16α)-3-Hydroxyandrost-16-carbonitrile] | – | – | – | – | – | – | 2.20 ± 0.20 | 8.83 ± 3.12 | 13.32 ± 4.54 | 0.03 ± 0.01 | 0.029 ± 0.003 µM | 206 to 208 °C | 10/10^a | 10/10^a | –
4 | C[C@@]12CC[C@@H]3[C@H](CC[C@@H]4C[C@@H](O)CC[C@]43C)[C@H]1CC(=O)C2 [MQ-35, (3β,5β,8α,9β,10α,13α,14β)-3-Hydroxyandrostan-16-one] | – | – | about 3 minutes | – | 0.55 ± 0.09 µM | 1.73 ± 0.04 µM | 1.42 ± 0.02 | 7.72 ± 0.39 | 34.70 ± 1.69 | 0.15 ± 0.04 | 0.081 ± 0.008 µM | 152 to 153 °C | – | – | about 7 minutes
5 | CO[C@H]1CC[C@]2(C)CC[C@@H]3[C@H](CC[C@@H]4C[C@@H](O)CC[C@]43C)[C@@H]12 [MQ-117, (3β,5β,8α,9β,10α,13α,14β,15α)-15-Methxoyandrostan-3-ol] | – | – | – | – | 0.079 ± 0.003 µM | 0.33 µM | 3.43 ± 0.29 | 11.10 ± 1.16 | 26.20 ± 2.91 | 0.06 ± 0.02 | 0.019 ± 0.008 µM | 137 to 139 °C | – | – | –
6 | C[C@@]12CC[C@@H]3[C@H](CC(=O)[C@@H]4C[C@@H](O)CC[C@@]34C)[C@H]1CC(=O)C2 [MQ-124, (3β,5β,8α,9β,10α,13α,14β)-3-Hydroxyandrostane-6,16-dione] | – | – | – | – | > 10 µM | > 10 µM | 0.68 ± 0.03 | 0.85 ± 0.03 | 1.57 ± 0.05 | −0.01 ± 0 | 8.95 ± 1.86 µM | 205 to 207 °C | – | – | –
7 | CO[C@@H]1C[C@@H]2[C@H]3C[C@H](OC)[C@@H]4C[C@@H](O)CC[C@@]4(C)[C@@H]3CC[C@@]2(C)C1 [MQ-125, (3β,5β,6α,8α,9β,10α,13α,14β,16α)-6,16-Dimethoxyandrostan3-ol] | – | – | – | – | – | – | 1.19 ± 0.18 | 5.02 ± 0.40 | 14.08 ± 2.23 | 0.43 ± 0.41 | 0.121 ± 0.01 µM | 127 to 129 °C | 10/10^a | 10/10^a | –
8 | CC(=O)[C@H]1CC[C@H]2[C@@H]3CC[C@H]4C[C@H](O)CC[C@]4(C)[C@H]3C(=O)C[C@]12C [alphaxalone, reference compound] | – | – | – | – | – | – | – | – | – | – | – | – | – | – | about 4 minutes
